Measurements from patent US20020137154A1, “Methods for improving cell growth and alcohol production during fermentation” (priority 2000, published 2002).

Columns and labels:
[1] = tested on: recombinant Escherichia coli KO11; assay: Batch fermentation of E. coli KO11 in 1% CSL medium and xylose with nutrient additives: ethanol production and cell growth; assay type: cell-based; details: for Ethanol Production Maximum / Ethanol Production Maximum % Control / Ethanol yield / Initial Growth (OD @ 24 h) % Control / Initial Growth (OD @ 24 h) OD / Maximum Cell Density % Control / Maximum Cell Density OD / Maximum Cell Density Time / Time to completion / Volumetric Productivity Average / Volumetric Productivity Average % Control / Volumetric Productivity Maximum / Volumetric Productivity Maximum % Control: 1% CSL+xylose; for activity at 2000 µg/mL: Escherichia coli
Procedure: (§1) Two types of media were tested: 1% CSL and Luria broth (LB). Each contained 97 g of either xylose or glucose per liter. Luria Broth consists of, per liter: 10 g Difco® Tryptone, 5 g Difco® Yeast Extract and 5 g NaCl. The 1% CSL medium consists of Corn Steep Liquor (1% w/v) plus mineral salts (mineral salts per liter: 1 g of KH2PO4. 0.5 g of K2HPO4, 3.1 g of (NH4)2SO4, 0.4 g of MgCl2·6H2), and 20 mg FeCl3·6H2O).
(§2) Luria Broth was prepared by autoclaving a 2× nutrient stock containing, per liter: 20 g Difco® Tryptone, 10 g Difo® Yeast Extract, and 10 g NaCl. Sugars (xylose or glucose) were autoclaved separately. A 1% CSL medium was prepared as follows: Commercial Corn Steep Liquor (CSL; 50% dry weight/50% water) was diluted with tap water to make a 20X stock containing 100 g dry weight of Corn Steep Liquor/L and was adjusted to pH 7.2 with NaOH (50%). After sterilization by autoclaving, the 20X CSL stock was clarified by centrifugation at 5000×g for 10 minutes. Magnesium was added as a 100× stock solution (40 g/L MgCl2·6H2O). Iron was added as a 1000× stock solution made by dissolving 20 g FeCl3·6H2O in 175 mL of HCl and adjusting to 1 L with sterile water. Nitrogen, sulfur and phosphorus were added using a 20× stock solution containing the following (per liter): 20 g of KH2PO4, 10 g of K2HPO4 and 62 g of (NH4)2SO4. Stock solutions containing minerals were sterilized separately by autoclaving. Final media was prepared by adding 750 mL of water to 1 L bottle containing 100 g of xylose or glucose.
Inocula were grown in same media used for fermentation and were prepared as follows. Three colonies from a fresh plate were used to inoculate seed cultures: 250-mL flask containing 100 mL medium. These cultures were grown with agitation (120 rpm) for 12-16 hours at 35° C. to a final OD550nm of approximately 2.0-2.5. Cells were harvested by centrifugation at 5000×g for 5 minutes, and resuspended in fresh media to an OD550nm of 0.1. The resulting suspension was distributed into 500-mL beakers containing 345 ml each of fermentation medium. Acetaldehyde was added as indicated. Batch fermentations (35° C., 100 rpm) were maintained at pH 6.5 by the automatic addition of 2N KOH. Cell mass, ethanol, and base addition (2N KOH) were recorded during 96 hours of incubation. […]
(§3) Additives (e.g., as listed in Table 1) were dissolved in 5 mL di-H2O. Solutions with pH lower than 5 were neutralized to pH 6.5 with 2N KOH. Nutritional supplements were then filter-sterilized (0.45 μm filter disk) directly into the fermentation vessel containing the culture. The final concentration of all additives in the culture medium was 2 g/L unless otherwise indicated.
(§4) Cell mass was estimated by measuring OD550nm using Baush & Lomb® Spectronic 70 spectrophotometer. […] Ethanol was measured by gas chromatography using a Varian® 3400 CX gas chromatograph with 1-propanol as an internal standard.
(§5) Tables 1, 3, and 5 show time to completion of fermentation, ethanol production, and volumetric productivity of the fermentation for all concentrations of the compound and the control. Maximum ethanol production is shown in grams/liter (g/L). The ethanol yield is shown in grams of ethanol/grams of added sugar. Maximum volumetric productivity is shown in grams ethanol/(liter)(hour). The average productivity is calculated form the start of fermentation to the completion of fermentation is grams ethanol/(liter)hour).
Tables 2, 4, and 6 show the initial growth of the cells (OD taken after the first 24 hours of fermentation) and the maximum cell density (the time which culture reaches the maximum OD value). […]

[2] = tested on: recombinant Escherichia coli KO11; assay: Batch fermentation of E. coli KO11 in 1% CSL medium and glucose with nutrient additives: ethanol production and cell growth; assay type: cell-based; details: for Ethanol Production Maximum / Ethanol Production Maximum % Control / Ethanol yield / Initial Growth (OD @ 24 h) % Control / Initial Growth (OD @ 24 h) OD / Maximum Cell Density % Control / Maximum Cell Density OD / Maximum Cell Density Time / Time to completion / Volumetric Productivity Average / Volumetric Productivity Average % Control / Volumetric Productivity Maximum / Volumetric Productivity Maximum % Control: 1% CSL+glucose; for activity at 2000 µg/mL: Escherichia coli
Procedure: as §1, §2
Inocula were grown in same media used for fermentation and were prepared as follows. Three colonies from a fresh plate were used to inoculate seed cultures: 250-mL flask containing 100 mL medium. These cultures were grown with agitation (120 rpm) for 12-16 hours at 35° C. to a final OD550nm of approximately 2.0-2.5. Cells were harvested by centrifugation at 5000×g for 5 minutes, and resuspended in fresh media to an OD550nm of 0.1. The resulting suspension was distributed into 500-mL beakers containing 345 ml each of fermentation medium. Acetaldehyde was added as indicated. Batch fermentations (35° C., 100 rpm) were maintained at pH 6.5 by the automatic addition of 2N KOH. Cell mass, ethanol, and base addition (2N KOH) were recorded during 96 hours of incubation.
Equivalent amounts of distilled water were added instead of the acetaldehyde in control experiments.
as §3, §4, §5
Tables 2, 4, and 6 show the initial growth of the cells (OD taken after the first 24 hours of fermentation) and the maximum cell density (the time which culture reaches the maximum OD value).
Acetaldehyde was added to the fermentation medium at five different concentrations and time points. […] Where two additions are indicated, the first volume was added at the start of fermentation and the second was added after 8 hours of fermentation.

[3] = additive 2 g/L unless indicated
[4] = 24 h, read-out: Initial Growth (OD @ 24 h) % Control, 1% CSL+xylose, additive 2 g/L unless indicated
[5] = read-out: Ethanol Production Maximum % Control, 1% CSL+xylose, additive 2 g/L unless indicated
[6] = read-out: Maximum Cell Density % Control, 1% CSL+xylose, additive 2 g/L unless indicated
[7] = read-out: Volumetric Productivity Average % Control, 1% CSL+xylose, additive 2 g/L unless indicated
[8] = read-out: Volumetric Productivity Maximum % Control, 1% CSL+xylose, additive 2 g/L unless indicated
[9] = 24 h, read-out: Initial Growth (OD @ 24 h) % Control, 1% CSL+glucose, additive 2 g/L unless indicated
[10] = read-out: Ethanol Production Maximum % Control, 1% CSL+glucose, additive 2 g/L unless indicated
[11] = read-out: Maximum Cell Density % Control, 1% CSL+glucose, additive 2 g/L unless indicated
[12] = read-out: Volumetric Productivity Average % Control, 1% CSL+glucose, additive 2 g/L unless indicated
[13] = read-out: Volumetric Productivity Maximum % Control, 1% CSL+glucose, additive 2 g/L unless indicated

## O=C(O)/C=C/C(=O)O [Fumarate]
[1]; [3]
  Ethanol Production Maximum: 28.49 g/L
  Ethanol Production Maximum % Control: 94.73%
  Ethanol yield: 0.293 grams of ethanol/grams of added sugar
  Initial Growth (OD @ 24 h) % Control: 91.16%
  Initial Growth (OD @ 24 h) OD: 1.86 OD
  Maximum Cell Density % Control: 103.15%
  Maximum Cell Density OD: 2.60 OD
  Maximum Cell Density Time: 96 h
  Time to completion: >96 h
  Volumetric Productivity Average: 0.297 grams ethanol/(liter)(hour)
  Volumetric Productivity Average % Control: 94.73%
  Volumetric Productivity Maximum: 0.345 grams ethanol/(liter)(hour)
  Volumetric Productivity Maximum % Control: 93.682%
[2]; [3]
  Ethanol Production Maximum: 32.92 g/L
  Ethanol Production Maximum % Control: 88.98%
  Ethanol yield: 0.339 grams of ethanol/grams of added sugar
  Initial Growth (OD @ 24 h) % Control: 99.76%
  Initial Growth (OD @ 24 h) OD: 2.67 OD
  Maximum Cell Density % Control: 117.92%
  Maximum Cell Density OD: 3.17 OD
  Maximum Cell Density Time: 72 h
  Time to completion: 96 h
  Volumetric Productivity Average: 0.343 grams ethanol/(liter)(hour)
  Volumetric Productivity Average % Control: 88.98%
  Volumetric Productivity Maximum: 0.559 grams ethanol/(liter)(hour)
  Volumetric Productivity Maximum % Control: 108.88%

## O=C(O)CC(C(=O)O)C(O)C(=O)O (stereo not shown) [Isocitrate]
[1]; [3]
  Ethanol Production Maximum: 33.02 g/L
  Ethanol yield: 0.340 grams of ethanol/grams of added sugar
  Maximum Cell Density OD: 3.01 OD
  Maximum Cell Density Time: 96 h
  Volumetric Productivity Average: 0.344 grams ethanol/(liter)(hour)
  Volumetric Productivity Maximum: 0.435 grams ethanol/(liter)(hour)
[1]; read-out: Maximum Cell Density % Control
  activity at 2000 µg/mL: 119%
[1]; read-out: Volumetric Productivity Maximum % Control
  activity at 2000 µg/mL: 118%
[2]; [3]
  Ethanol Production Maximum: 33.95 g/L
  Ethanol yield: 0.349 grams of ethanol/grams of added sugar
  Volumetric Productivity Average: 0.471 grams ethanol/(liter)(hour)
  Volumetric Productivity Maximum: 0.588 grams ethanol/(liter)(hour)
[2]; read-out: Ethanol Production Maximum % Control
  activity at 2000 µg/mL: 91.8%
[2]; read-out: Volumetric Productivity Average % Control
  activity at 2000 µg/mL: 122%

## O=C(O)CC(O)C(=O)O (stereo not shown) [Malate, malate]
[1]; [3]
  Ethanol Production Maximum: 24.43 g/L
  Ethanol yield: 0.252 grams of ethanol/grams of added sugar
  Initial Growth (OD @ 24 h) OD: 1.71 OD
  Maximum Cell Density OD: 2.42 OD
  Maximum Cell Density Time: 96 h
  Volumetric Productivity Average: 0.255 grams ethanol/(liter)(hour)
  Volumetric Productivity Maximum: 0.274 grams ethanol/(liter)(hour)
[1]; [4]
  activity at 2000 µg/mL: 83.9%
[1]; [5]
  activity at 2000 µg/mL: 81.2%
[1]; [6]
  activity at 2000 µg/mL: 96.3%
[1]; [7]
  activity at 2000 µg/mL: 81.2%
[1]; [8]
  activity at 2000 µg/mL: 74.5%
[2]; [3]
  Ethanol Production Maximum: 27.58 g/L
  Ethanol yield: 0.284 grams of ethanol/grams of added sugar
  Initial Growth (OD @ 24 h) OD: 3.19 OD
  Maximum Cell Density OD: 3.39 OD
  Volumetric Productivity Average: 0.287 grams ethanol/(liter)(hour)
  Volumetric Productivity Maximum: 0.498 grams ethanol/(liter)(hour)
[2]; [9]
  activity at 2000 µg/mL: 119%
[2]; [10]
  activity at 2000 µg/mL: 74.6%
[2]; [11]
  activity at 2000 µg/mL: 126%
[2]; [12]
  activity at 2000 µg/mL: 74.6%
[2]; [13]
  activity at 2000 µg/mL: 97%

## O=C(O)CC(=O)C(=O)O [Oxaloacetate]
[1]; [3]
  Ethanol Production Maximum: 23.61 g/L
  Ethanol yield: 0.243 grams of ethanol/grams of added sugar
  Initial Growth (OD @ 24 h) OD: 1.65 OD
  Maximum Cell Density OD: 2.26 OD
  Maximum Cell Density Time: 96 h
  Volumetric Productivity Average: 0.246 grams ethanol/(liter)(hour)
  Volumetric Productivity Maximum: 0.270 grams ethanol/(liter)(hour)
[1]; [4]
  activity at 2000 µg/mL: 80.8%
[1]; [5]
  activity at 2000 µg/mL: 78.5%
[1]; [6]
  activity at 2000 µg/mL: 89.9%
[1]; [7]
  activity at 2000 µg/mL: 78.5%
[1]; [8]
  activity at 2000 µg/mL: 73.3%
[2]; [3]
  Ethanol Production Maximum: 39.72 g/L
  Ethanol yield: 0.409 grams of ethanol/grams of added sugar
  Initial Growth (OD @ 24 h) OD: 3.29 OD
  Maximum Cell Density OD: 3.46 OD
  Volumetric Productivity Average: 0.552 grams ethanol/(liter)(hour)
  Volumetric Productivity Maximum: 0.712 grams ethanol/(liter)(hour)
[2]; [9]
  activity at 2000 µg/mL: 123%
[2]; [10]
  activity at 2000 µg/mL: 107%
[2]; [11]
  activity at 2000 µg/mL: 129%
[2]; [12]
  activity at 2000 µg/mL: 143%
[2]; [13]
  activity at 2000 µg/mL: 138%

## O=C(O)CCC(=O)O [Succinate, succinate]
[1]; [3]
  Ethanol Production Maximum: 35.00 g/L
  Ethanol Production Maximum % Control: 116.35%
  Ethanol yield: 0.360 grams of ethanol/grams of added sugar
  Initial Growth (OD @ 24 h) % Control: 103.40%
  Initial Growth (OD @ 24 h) OD: 2.11 OD
  Maximum Cell Density % Control: 124.13%
  Maximum Cell Density OD: 3.12 OD
  Maximum Cell Density Time: 96 h
  Time to completion: >96 h
  Volumetric Productivity Average: 0.365 grams ethanol/(liter)(hour)
  Volumetric Productivity Average % Control: 116.35%
  Volumetric Productivity Maximum: 0.400 grams ethanol/(liter)(hour)
  Volumetric Productivity Maximum % Control: 108.536%
[2]; [3]
  Ethanol Production Maximum: 30.13 g/L
  Ethanol Production Maximum % Control: 81.46%
  Ethanol yield: 0.310 grams of ethanol/grams of added sugar
  Initial Growth (OD @ 24 h) % Control: 100.47%
  Initial Growth (OD @ 24 h) OD: 2.69 OD
  Maximum Cell Density % Control: 98.99%
  Maximum Cell Density OD: 2.66 OD
  Maximum Cell Density Time: 72 h
  Time to completion: 96 h
  Volumetric Productivity Average: 0.314 grams ethanol/(liter)(hour)
  Volumetric Productivity Average % Control: 81.46%
  Volumetric Productivity Maximum: 0.511 grams ethanol/(liter)(hour)
  Volumetric Productivity Maximum % Control: 99.45%
